How the values were obtained:
CYP2B6 = test: Cytochrome P450 (CYP2B6) induction in cryopreserved human hepatocytes, mRNA fold-change method; format: in vitro ADME; conditions: hepatocytes from three donors, 0.12 to 30 μM, 48 hours; Example 1 all three donors, Example 60.2 2 of 3 donors
Experimental: Following the guidance of the FDA (“In Vitro Metabolism- and Transporter-Mediated Drug-Drug Interaction Studies Guidance for Industry”), the potential of Example 1 and Example 60.2 to induce CYP2B6 expression was tested using hepatocytes from the same three individual donors (rather than pooled donors), and changes in enzyme mRNA levels were evaluated using the “fold-change method”. In this test a fold-change in mRNA levels less than 2-fold is considered a negative finding, while a change 2-fold is considered a positive finding.
Compounds were tested in a CYP induction assay using inducible cryopreserved human primary hepatocytes from three donors to determine the potential to cause induction (as measured by an increase in mRNA transcription) of CYP2B6. […] At the end of the incubation, the integrity of cell monolayers, cell density and viability were evaluated to assess cytotoxicity effects. […] Samples were then used in reverse transcription polymerase chain reactions (RT-PCR) to quantify the amount of specific mRNA species encoding the human CYP2B6 gene.
The induction potential of test compounds and controls was compared to known CYP2B6 inducer Phenobarbital (1000 μM). The results of this assay are expressed as fold induction. […] The cytotoxicity was also assessed in parallel to avoid false positive CYP induction results due to cytotoxicity. […]

[1] = IV pharmacokinetics in monkey; format: in vivo, Cynomolgus monkeys
Experimental: PK was investigated in male CD1 mice, Wistar Han Rats, Cynomolgus monkeys, and Beagle Dogs. Two groups of animals (N=3 per group) received test compound either as an intravenous (IV) dose (1 mg/kg) or by oral gavage (5 mg/kg solution and suspension). Drug was formulated in 90% PEG 400, 10% ethanol for IV administration and in 90% PEG400, 5% ethanol for PO administration. Blood samples were collected at 0.167, 0.25, 0.5, 0.75, 1, 2, 3, 5, 7, 24, 48, 72 and 96 h post dose for IV; 0.25, 0.5, 0.75, 1, 2, 3, 5, 7, 24, 48, 72 and 96 h post dose for oral. Blood samples were collected into K3EDTA tubes and centrifuged at 1500 to 2000×g to obtain plasma. Plasma samples were stored at −20° C. until analysis by LC-MS/MS. All in vivo samples were injected on an Exion LC 4500 Triple Quad™ LC-MS/MS system where the column was maintained at 60° C. and the flow rate was 0.6 mL/min. All LC-MS/MS analysis parameters are captured electronically in the raw data files. Rat IV, Dog IV, Monkey IV, and Monkey PO PK samples were analyzed by General Analysis Method A. Mouse IV, Mouse PO, and Dog PO PK samples were analyzed by General Analysis Method B. Rat PO samples were analyzed by General Analysis Method C.
The PK parameters were obtained by non-compartmental analysis of plasma concentration vs time data (Phoenix WinNonlin v8.1). The peak concentration (Cmax) and time for Cmax (Tmax) were recorded directly from experimental observations. The area under the curve from time zero to the last sampling time [AUC0-T] and the area under the curve from time zero to infinity [AUCINF] were calculated using the linear-log trapezoidal rule. The total plasma clearance (CLTp), steady-state volume of distribution (VSS), apparent elimination half-life (T-HALF), and mean residence time (MRT) were estimated after IV administration. Estimations of AUC and T-HALF were made using a minimum of three timepoints with quantifiable concentrations. The absolute oral bioavailability (F) was estimated as the ratio of dose-normalized AUC values following oral and IV doses.

[2] = Metabolism in liver microsomes (rat); format: in vitro ADME; conditions: pH 7.4, 1 μM compound, 1 mg/mL microsomes, NADPH, read-out: Rat liver microsome T1/2
Experimental: Liver microsomes from human, rat dog and monkey were thawed and diluted to a final concentration of 1 mg/mL in 100 mM potassium phosphate buffer (pH 7.4). Test compounds and controls were prepared at 100× final concentration of 1 μM in 1:1 acetonitrile:water (v/v) and aliquoted into microsomal mixture. The mixture was preincubated at 37° C. in a shaking water bath for 10 minutes. The incubations were performed in duplicate. Three controls were included in the incubations; warfarin, phenacetin, and verapamil. After the preincubation, the reaction was initiated with NADPH at a final concentration of 1 mM. At 0, 5, 15, 30, 45 and 60 minutes, 25 μL of sample was removed and quenched with 300 μL of acetonitrile containing internal standard (Telmisartan). The samples were vortexed for 5 minutes at 1200 rpm and then centrifuged at 4000 rpm for 10 min. A 100 μL aliquot of supernatant was diluted three-fold with water and injected on an Exion LC 4500 Triple Quad LC-MS/MS system. Results were reported as a percentage of parent remaining and was calculated from peak area ratios of test compound remaining after at each time point and compared to time zero incubation.

[3] = Allometric scaling of pre-clinical PK parameters to predict dose in human
Experimental: Human dose predictions were performed using Phoenix WinNonlin (v 8.0) software and Microsoft Excel using the ModelRisk add-in for population modeling. Human estimates for each compound's CLTp were obtained based on average allometric scaling of mouse, rat, monkey and dog IV data (body weight scaling factor of 0.75) and an average (body weight scaling factor of 1.0) from all species for VSS. Human IV parameters (Vc, Ka, K12, K21, Kel) were determined using Mean Residence Time (MRT) scaling from preclinical species (mouse, rat, dog and cyno) using the human VSS and CLTp estimates. Absorption (Ka) was determined by deconvolution (PO) or from the half-life (SC) in preclinical species (Ka=LN(2)/t1/2). The predicted human dose for PO and SC is calculated with consideration of human variability and is calculated to cover 95% of the human population.

[4] = cynomolgus monkey, plasma, Monkey, IV 1 mg/kg

Structure (SMILES): Cn1nc(NS(C)(=O)=O)c2c(Cl)ccc(-n3c([C@H](Cc4cc(F)cc(F)c4)NC(=O)Cn4nc(C(F)F)c5c4C(F)(F)[C@@H]4C[C@H]54)nc4nc(OCCC(F)(F)F)ccc4c3=O)c21 (atropisomer, axis not shown; (P)) [Example 1, N—((S)-1-((3P)-3-(4-chloro-1-methyl-3-(methylsulfonamido)-1H-indazol-7-yl)-4-oxo-7-(3,3,3-trifluoropropoxy)-3,4-dihydropyrido[2,3-d]pyrimidin-2-yl)-2-(3,5-difluorophenyl)ethyl)-2-((3bS,4aR)-3-(difluoromethyl)-5,5-difluoro-3b,4,4a,5-tetrahydro-1H-cyclopropa[3,4]cyclopenta[1,2-c]pyrazol-1-yl)acetamide]
- CYP2B6 induction finding (mRNA fold-change method) (CYP2B6): negative finding (a fold-change in mRNA levels less than 2-fold is considered a negative finding)
- clearance [1, 4]: 8.5 mL/min/kg
- half-life [1, 4]: 3 h
- Vd ([1]; cynomolgus monkey, plasma, Monkey, IV 1 mg/kg, read-out: Vss): 1.18 L/kg
- clearance improved relative to Example 60.2 ([1]; monkey, IV): 2.6 fold
- half-life in circulation higher than Example 60.2 ([1]; monkey, IV): two-fold
- half-life at 1 μM [2]: > 2 h
- predicted human QD PO dose ([3]; once-daily oral, allometric scaling, to cover 95% of the human population): less than 10 mg
- predicted Q1M SC dose in human lower than for Example 60.2 ([3]; once-monthly subcutaneous, from SC rat PK and predicted human clearance): 15 fold
- predicted once-daily oral dose in human lower than for Example 60.2 ([3]; to maintain efficacious plasma concentration): 7 fold

Reference: patent publication US12129255B2, “Pyrido [2,3-d]pyrimidine derivatives as inhibitors of human immunodeficiency virus replication” (VIIV HEALTHCARE UK (No. 5) LIMITED, priority 2019, dated 2024)
